Data reported in PMC12336439 (Archiv Der Pharmazie, 2025).
“And” between values parts separate entries of the source, which are not always exact repeats. Equal entries are not always repeated. Where two headings read alike, the source gives them in different places. Marks after values point to notes of the source that are not given here.

Assays:
[1] = target: T1, USP7asoc (active site only cysteine) (Homo sapiens, UniProt Q93009, C300S/C315S/C334S/C478S/C488S/C510S); assay: Differential scanning fluorimetry (DSF), melting temperature shift of USP7asoc mutant; assay type: binding; details: for ∆T m ± SD USP7asoc: 8 µM protein, 250 µM compound (1:31.25)
T1 construct: (208‐560, C300/315/334/448/478/510S); made in house
Protocol: USP7asoc only retains the catalytic Cys223 while all the other six cysteines are mutated to serine. DSF was selected for initial assessment since it is an efficient and rapid primary screening method readily available to our lab. […] An important consideration when assessing covalent inhibitors is the time dependence of covalent target occupancy and thus potency, which is determined by the reaction kinetics of the covalent binding event. To allow for drawing conclusions on compounds with slower reaction kinetics, incubation times of 30 min, 4 h, and 24 h at 20°C were chosen for the DSF screen with USP7 (Table 1 and Figures 2 and 3). The threshold at which compounds were considered (de‐)stabilizers was defined at 0.5°C. In parallel, the intrinsic reactivity of a set of representative compounds was evaluated in a glutathione reactivity assay. […] The expression and purification of USP7 catalytic domain (USP7CD) (208‐560) and USP7asoc (active site only cysteine) by using a pET24a(+)_HLT_USP7 construct were performed as previously described. […] For the USP7asoc, six of the seven cysteines are mutated to serines (208‐560, C300/315/334/448/478/510S). All utilized protein sequences are depicted in Supporting Information S2: Table S.3.1. The melting temperatures of USP7 and USP7asoc in the presence or absence of fragments were determined by DSF on a Qiagen Rotor‐Q Model‐5‐Plex HRM real‐time PCR instrument (Qiagen, Hilden, Germany). SYPRO Orange (Life Technologies Corporation, Eugene, OR, USA) was used as a fluorescent dye at a final concentration of 5x. The protein concentration was 8 µM, and the final compound concentration was 250 µM, corresponding to a protein‐to‐compound ratio of 1:31.25. All compounds were dissolved in dimethyl sulfoxide (DMSO) and the proteins in Tris buffer (25 mM Tris pH 8.0, 150 mM NaCl, 5 mM TCEP, 5% (v/v) DMSO). All measurements were performed after 30 min, 4 h, and 24 h of incubation and at least in triplicate. DSF experiments were carried out with a constant heating rate of 270°C/h. The temperature was ramped from 28°C to 60°C–70°C with excitation and emission filters set at 470 nm and 610 nm, respectively. The melting temperatures (T m) of USP7 and USP7asoc were determined from the maxima of the first derivatives of the melting curves in OriginPro2020 (OriginLab, Northampton, MA, USA). The ∆T m was calculated by subtraction of the T m of the protein sample with pure DMSO from the T m of the protein sample mixed with compound. Error propagation was used to average multiple runs for a compound. A compound was considered to be a hit if the shift in the ∆T m was at least 0.50°C [55].

[2] = target: T2, USP7cd (USP7 catalytic domain) (Homo sapiens, UniProt Q93009); assay: Ub-AMC enzyme activity assay, IC50 determination; assay type: biochemical; details: 10 nM USP7cd, 500 nM Ub-AMC, 24 h pre-incubation at 20°C
T2 construct: USP7 catalytic domain (USP7CD) (208‐560); made in house
Protocol: Therefore, USP7 was incubated for 24 h with ten different compound concentrations, and IC50 values were then obtained with a fluorescent DUB substrate (Ub‐AMC) (Figure 9A–F). The pre‐incubation times were chosen to account for the slow covalent binding kinetics observed in the previous experiments.
The cleavage activity of USP7cd in the presence or absence of inhibitors was measured using Ubiquitin‐Aminomethylcoumarin (Ub‐AMC) (Enzo Life Sciences GmbH, Lörrach, Germany) as a fluorogenic substrate. The fluorescence was monitored using the CLARIOstar plate reader (BMG Labtech GmbH, Ortenberg, Germany) at 25°C at 360 nm excitation and 460 nm emission wavelengths. […] Each measurement was performed at least twice in duplicate. […] Ub‐AMC was added to a final concentration of 500 nM, and the fluorescence was measured after 1 h. The normalized dose‐response semi‐logarithmic curves were fitted using OriginPro2021 and the four‐parameter logistic function.
Different concentrations of compounds were pre-incubated with USP7 for 24 h at 20 °C in a rotating shaker in 25 mM Tris pH 8.0, 150mM NaCl, 5 mM TCEP supplemented with 0.2 mg/mL bovine serum albumin (BSA). Fluorescence was measured after 1 h of the addition of Ub-AMC. The dose response semi-logarithmic curves were fitted using OriginPro2021 and the four-parameter logistic function.

[3] = target: T3, USP7 (Homo sapiens, UniProt Q93009); assay: Intact protein MS (UHPLC-ESI-MS), covalent modification of USP7; assay type: binding; details: 24 h incubation at 20°C, protein-to-compound ratio 1:31.25
T3 construct: USP7 catalytic domain (USP7CD) (208‐560); made in house
Protocol: The DSF results described above were validated by UHPLC‐ESI‐MS to verify possible covalent binding through a corresponding mass shift. Intact protein MS is an important screening method in irreversible‐covalent hit identification and is especially suitable for covalent fragment‐based drug discovery (FBDD). It allows for the identification of covalent binders by detecting covalent protein‐compound adducts, thus making use of the stability of the covalent bond.
USP7 was prepared in Tris buffer (25 mM Tris pH 8.0, 150 mM NaCl, 5 mM TCEP) with a protein‐to‐compound ratio of 1:31.25 and 5% (v/v) DMSO. The protein‐compound mixtures were all incubated at 20°C for 24 h on a rotating shaker. The analysis of intact protein mass was carried out using UHPLC‐ESI‐MS measurements, with data acquisition and data analysis as previously described.

[4] = supplement table, read-out: Biological Activity (IC50)

T1 sequence (Q93009 with tags, fused parts or gaps C300S/C315S/C334S/C478S/C488S/C510S): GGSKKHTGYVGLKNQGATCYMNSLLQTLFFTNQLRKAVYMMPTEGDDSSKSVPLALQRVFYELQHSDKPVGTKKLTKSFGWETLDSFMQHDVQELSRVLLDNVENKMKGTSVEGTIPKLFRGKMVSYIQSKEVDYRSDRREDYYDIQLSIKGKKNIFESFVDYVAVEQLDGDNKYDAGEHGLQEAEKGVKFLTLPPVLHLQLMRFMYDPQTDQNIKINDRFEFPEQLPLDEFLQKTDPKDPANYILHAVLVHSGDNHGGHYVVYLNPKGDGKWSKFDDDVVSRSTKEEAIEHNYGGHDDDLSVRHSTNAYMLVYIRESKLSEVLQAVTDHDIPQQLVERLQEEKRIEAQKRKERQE
T3 sequence (Q93009 with tags, fused parts or gaps): as the sequence (Q93009 with tags, fused parts or gaps C300S/C315S/C334S/C478S/C488S/C510S) above, with S96C, S111C, S130C, S274C, S284C, S306C counted along it
T2 sequence (Q93009 with tags, fused parts or gaps): as the sequence (Q93009 with tags, fused parts or gaps C300S/C315S/C334S/C478S/C488S/C510S) above, with S96C, S111C, S130C, S274C, S284C, S306C counted along it

Question: For `Cn1ccc(-c2cccc3cnc(Nc4nc(F)ccc4[N+](=O)[O-])cc23)c1` [7b, N‐(6‐Fluoro‐3‐nitropyridin‐2‐yl)‐5‐(1‐methyl‐1H‐pyrrol‐3‐yl)isoquinolin‐3‐amine], which “∆T m ± SD USP7asoc” value ([1]; 30 min incubation at 20°C) is on record?
Answer: The value was 0.05 ± 0.09 °C.

Question: And the “∆T m ± SD USP7asoc” value ([1]; 4 h incubation at 20°C)?
Answer: The value was 0.45 ± 0.12 °C.

Question: And the “∆T m ± SD USP7asoc” value ([1]; 24 h incubation at 20°C)?
Answer: The value was 0.38 ± 0.06 °C.

Question: And the IC50 ([2]; read-out: IC50 USP7cd)?
Answer: Its IC50 is 56.6 µM and 57 µM.

Question: And the IC50 [2, 4]?
Answer: The IC50 was 56.6 ± 6.11 µM.

Question: What about the “protein species in deconvoluted mass spectrum of USP7” value (from here on “protein species”) [3] of the same compound?
Answer: Its value is “unmodified protein species as a main peak for both USP7 and USP7asoc”.

Question: What does the source list for `CCn1cc(-c2cccc3cnc(Nc4nc(F)ccc4[N+](=O)[O-])cc23)cn1` [7c, 5‐(1‐Ethyl‐1H‐pyrazol‐4‐yl)‐N‐(6‐fluoro‐3‐nitropyridin‐2‐yl)isoquinolin‐3‐amine]?
Answer: ∆T m ± SD USP7asoc ([1]; 30 min incubation at 20°C): –0.25 ± 0.23 °C; ∆T m ± SD USP7asoc ([1]; 4 h incubation at 20°C): 0.20 ± 0.09 °C; ∆T m ± SD USP7asoc ([1]; 24 h incubation at 20°C): 0.23 ± 0.08 ^b °C; IC50 ([2]; read-out: IC50 USP7cd): 36.2 µM and 36 µM; IC50 [2, 4]: 36.2 ± 2.21 µM; protein species in deconvoluted mass spectrum of USP7 [3]: mainly showed the attachment of a single molecule to USP7 and USP7asoc

Question: Which “∆T m ± SD USP7asoc” value ([1]; 30 min incubation at 20°C) does the source give for `CCCn1cc(-c2cccc3cnc(Nc4nc(F)ccc4[N+](=O)[O-])cc23)cn1` [7d, N‐(6‐Fluoro‐3‐nitropyridin‐2‐yl)‐5‐(1‐propyl‐1H‐pyrazol‐4‐yl)isoquinolin‐3‐amine] here?
Answer: The value was 0.00 ± 0 °C.

Question: What about the “∆T m ± SD USP7asoc” value ([1]; 4 h incubation at 20°C) of the same compound?
Answer: Its value is 0.03 ± 0.08 °C.

Question: And the “∆T m ± SD USP7asoc” value ([1]; 24 h incubation at 20°C)?
Answer: Its value is 0.35 ± 0.06 °C.

Question: And the IC50 ([2]; read-out: IC50 USP7cd)?
Answer: The IC50 was 26.8 µM and 27 µM.

Question: What about the IC50 [2, 4] of the same compound?
Answer: Its IC50 is 26.8 ± 7.54 µM.

Question: What about the “protein species” value [3] of the same compound?
Answer: Its value is “single modified protein as the main signal”.

Question: Which results are given for `O=[N+]([O-])c1ccc(F)nc1Nc1cc2c(-c3cnn(C4CC4)c3)cccc2cn1` [7e, 5‐(1‐Cyclopropyl‐1H‐pyrazol‐4‐yl)‐N‐(6‐fluoro‐3‐nitropyridin‐2‐yl)isoquinolin‐3‐amine]?
Answer: ∆T m ± SD USP7asoc ([1]; 30 min incubation at 20°C): –0.35 ± 0.09 °C; ∆T m ± SD USP7asoc ([1]; 4 h incubation at 20°C): –0.13 ± 0.04 °C; ∆T m ± SD USP7asoc ([1]; 24 h incubation at 20°C): 0.40 ± 0.09 ^b °C; ∆T m of small shoulder (second smaller peak) of the melting curve of USP7asoc ([1]; 24 h incubation, 250 µM compound): about –5 °C; IC50 ([2]; read-out: IC50 USP7cd): 48.4 µM and 48 µM; IC50 [2, 4]: 48.3 ± 5.68 µM; protein species in deconvoluted mass spectrum of USP7 [3]: mono‐arylated USP7 and USP7asoc species as main peaks

Question: `O=[N+]([O-])c1ccc(F)nc1Nc1cc2c(-c3ccc(-c4ccncc4)cc3)cccc2cn1` [7i, N‐(6‐Fluoro‐3‐nitropyridin‐2‐yl)‐5‐[4‐(pyridin‐4‐yl)phenyl]isoquinolin‐3‐amine] was tested. Which “∆T m ± SD USP7asoc” value ([1]; 30 min incubation at 20°C) did it give?
Answer: Its value is “–0.30 ± 0.12 °C”.

Question: What about the “∆T m ± SD USP7asoc” value ([1]; 4 h incubation at 20°C) of the same compound?
Answer: Its value is “–0.15 ± 0 °C”.

Question: And the “∆T m ± SD USP7asoc” value ([1]; 24 h incubation at 20°C)?
Answer: Its value is 0.05 ± 0.17 °C.

Question: What about the IC50 ([2]; read-out: IC50 USP7cd) of the same compound?
Answer: Its IC50 is greater than 1000 µM.

Question: And the “protein species” value [3]?
Answer: The value was “unmodified USP7 and USP7asoc as the main peak”.
